Legend:
H5N1 virus = details: cited from earlier work
[1] = test system: warts, toe and foot fungus, skin tags; test: Topical use of hydrated lime; details: in vivo
[2] = test system: different bacterial strains including Bacillus subtilis; details: agar diffusion; hydrated spores; cited from earlier work

| SMILES | susceptibility of H5N1 virus currently infecting birds in Asia (H5N1 virus) | removal of warts, toe and foot fungus, skin tags [1] | antimicrobial activity compared with the other antimicrobial agents (MTA, Portland cement, Sealapex, Dycal) [2] |
| --- | --- | --- | --- |
| NC12CC3CC(CC(C3)C1)C2 [amantadine] | resistant |  |  |
| CC(N)C12CC3CC(CC(C3)C1)C2 (stereo not shown) [rimantadine] | resistant |  |  |
| [Ca+2].[OH-].[OH-] [calcium hydroxide] |  | shown to remove warts, toe and foot fungus, skin tags | superior |

Reference: patent US20080254080A1, “Novel Uses of Calcium Hydroxide” (priority 2004, published 2008)
